We go through 58 compounds from ChEMBL document CHEMBL1201862, “PubChem BioAssay data set” (2004).

Experiment in all cases: DTP human tumour cell line panel, 48 h
The subject of test [1] is BT-549.
Test [2] has as its system HOP-18.
The test system of test [3] is DLD-1.
The subject of test [4] is KM-20L2.
Test [5] has as its system LXFL 529.
Test [6] concerns DMS-273.
The subject of test [7] is SNB-78.
Test [8] relates to XF498.

The structures appear in SMILES notation.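 Five compound concentrations were applied to cells in 96-well plates for 48 hours; endpoints were derived by simple linear interpolation of the resulting dose-response curve. GI50 is the concentration that inhibits growth by half.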 Activity calls are given as the source filed them. Rule as the data show it: active = GI50 up to about 1.1 µM and inactive = higher.

On to `COc1cccc(-c2cc(O)c3cc(N4CCN(C)CC4)ccc3n2)c1`, for which the GI50 in test [1] was 4.46 µM (inactive).
The same measure, in the same setting: under `Cc1cc2c(cc1C)NC1=C(O)C(c3c[nH]c4ccc(COc5ccccc5)cc34)OC1=N2` (centres undefined) stands > 100 µM (inactive).
On the same count and under the same terms, in the case of `COc1ccc2nc3c4c(nccc4c2c1)-c1ncccc1C3=O` it was 0.109 µM (active).
For the compound `CC12CCC3c4ccc(O)cc4CCC3C1C/C(=N\O)C2O` (centres undefined), the GI50 in test [1] is > 100 µM (inactive).
On the same count and under the same terms, under `Cn1c(=S)c2nc(SCc3cccnc3)[nH]c2n(C)c1=O` stands > 100 µM (inactive); under `O=C(COC(=O)c1ccccc1)c1ccc(Br)cc1`, 6.14 µM (inactive).
In the case of `OC(COc1cccc2ccccc12)CN1CCOCC1` (centres undefined), in test [1], the GI50 is > 100 µM (inactive).
As to `N#Cc1c(NCCc2ccc(F)cc2)c2ccccc2n2c1nc1ccccc12`, the GI50 in test [1] is 21.2 µM (inactive).
The same measure, in the same setting: under `CCCC1C2=C(C(=O)OC2=O)C2C(CC)CC3=C(C(=O)OC3=O)C12` (centres undefined) stands > 100 µM (inactive); under `COC(=O)C1=C(O)CCCC(C2CCCCC(=O)C2C(=O)OC)=C1` (centres undefined), 78.9 µM (inactive); under `CC(=O)Oc1cccc2c1C(=O)CCCC2`, > 100 µM (inactive).
As to `Cc1ccccc1-n1c(=O)sc2c(=O)n(-c3ccccc3)c(=S)[nH]c21`, the GI50 in test [2], in test [3], in test [4], in test [5], in test [6] and in test [7] was > 100 µM (inactive) each time.
As to `COc1ccc(S(=O)(=O)c2nnc(S(=O)(=O)Cc3ccccc3)s2)cc1`, the GI50 in test [1] is 27 µM (inactive).
For `N#Cc1cccc(NC(=O)c2ccc(C(=O)O)c(C(=O)c3ccc(C(=O)O)c(C(=O)Nc4cccc(C#N)c4)c3)c2)c1`, the GI50 in test [2], in test [3], in test [4], in test [5], in test [6] and in test [7] was > 100 µM (inactive) each time. Moreover, the GI50 in test [8] is > 100 µM (inactive).
Turning to `Oc1ccc(Cl)cc1C1=NC(/N=C\c2ccccc2)=NC(c2ccccc2)C1` (centres undefined), the GI50 in test [1] is > 100 µM (inactive).
For the compound `Cc1c(N2C(=O)/C(=C/c3ccc(N(CCC#N)CCC#N)cc3)N=C2c2ccccc2)c(=O)n(-c2ccccc2)n1C`, the GI50 in test [1] was > 100 µM (inactive).
The same measure, in the same setting: under `O=C1/C(=C/c2cccc([N+](=O)[O-])c2)N=C(c2ccccc2)N1c1nc2c(Cl)cc(Cl)cc2s1` stands 30.5 µM (inactive).
Same read-out and setting: in the case of `CCOC(=O)N1c2ccccc2N(C(=O)OCC)C1CC(=O)/C=C/c1ccccc1` it was 2.89 µM (inactive); in that of `CCNC(=O)c1cc(Cl)ccc1NC(=O)C12CC3CC(CC(C3)C1)C2`, 36.6 µM (inactive); in that of `COc1ccc2c(O)c3[n+](cc2c1OC)CCc1cc2c(cc1-3)OCO2`, 72.4 µM (inactive).
Same read-out and setting: in the case of `CC(C)(C)OC(=O)NC(Cc1ccccc1)C(=O)OCN1C(=O)C2C3C=CC(C2C1=O)C1C2C(=O)N(COC(=O)C(Cc4ccccc4)NC(=O)OC(C)(C)C)C(=O)C2C31` (centres undefined) it was 18.6 µM (inactive); in that of `COC(=O)c1ccccc1CC(Cc1ccccc1)C(=O)OC` (centres undefined), > 100 µM (inactive).
In the case of `C/C=C(/C)C(=O)O[C@H]1[C@H]2[C@@H]([C@@H](OC(C)=O)[C@H](C)C(=O)[C@@]34C[C@@H](C)C(=O)[C@]3(/C=C(\C)[C@H]1OC(C)=O)O4)C2(C)C`, the GI50 in test [1] was 2.84 µM (inactive).
On the same count and under the same terms, in the case of `COC(=O)CC1(O)C(C=C(C)C)C(C(=O)OC)C(=O)C(C(=O)OC)C1C(=O)OC` (centres undefined) it was 11.4 µM (inactive).
With `CC(=O)NS(=O)(=O)c1ccc(NC(=O)COC(=O)c2cccc3c(=O)c4ccccc4[nH]c23)cc1`, the GI50 in test [2], in test [6] and in test [8] was > 100 µM (inactive) each time.
`O=C(CSSCC(=O)OCCS(=O)(=O)Nc1ccc(Br)cc1)OCCS(=O)(=O)Nc1ccc(Br)cc1`: the GI50 was > 100 µM (inactive) in test [2]; 15.7 µM (inactive) in test [3]; 22.9 µM (inactive) in test [4]; 7.1 µM (inactive) in test [5]; 9.51 µM (inactive) in test [6]; 17.1 µM (inactive) in test [7].
On to `NCCCN(CCCN(C(=O)Nc1ccccc1)c1ccccc1)C(=O)Nc1ccccc1`, for which the GI50 in test [1] is 31 µM (inactive).
The same measure, in the same setting: under `c1ccc2c(c1)CC1c3[nH]c4ccccc4c3CCN21` (centres undefined) stands > 10 µM (inactive).
Consider `COC(=O)C(=O)C(C(=O)C(=O)Nc1ccc(OC)cc1[N+](=O)[O-])c1nc2ccc([N+](=O)[O-])cc2nc1O` (centres undefined), for which the GI50 in test [2], in test [3], in test [4], in test [5], in test [7] and in test [8] was > 100 µM (inactive) each time.
In the case of `CC[C@@H]1CC[C@@H]2[C@H](CC[C@]3(C)[C@@H](O)CC[C@@H]23)[C@H]1CO`, in test [1], the GI50 was > 100 µM (inactive).
Still for that read-out and setting: in the case of `Nc1nc(Cl)cc(NCC2(CO)CCC(Cc3ccccc3)C2)n1` (centres undefined) it was 16.2 µM (inactive); in that of `CCc1nnc2sc(-c3ccc(-c4ccc(Cl)cc4Cl)o3)nn12`, 50 µM (inactive).
As to `NC(=O)C12C3C4C1C1C2C3C41C(N)=O` (centres undefined), the GI50 in test [2], in test [3], in test [4], in test [5] and in test [6] was > 100 µM (inactive) each time.
`NCCCN(CCCCN(CCCN)Cc1ccc2ccccc2c1)Cc1ccc2ccccc2c1`: in test [1], the GI50 was 2.23 µM (inactive).
As to `COC(=O)C1=C(C(=O)OC)C23C=CC=CC24C(C(=O)OC)=C(C(=O)OC)C4C1C3` (centres undefined), the GI50 in test [3] is > 100 µM (inactive); in test [4] it was > 100 µM (inactive); in test [5] it was 74.1 µM (inactive); in test [6], 72.9 µM (inactive); in test [7] it was 67.1 µM (inactive); in test [8] it was > 100 µM (inactive).
On to `O=C1NN=C2C=C(c3ccc(Cl)cc3)CC(c3cccc(Br)c3)C12` (centres undefined), for which, in test [1], the GI50 was > 100 µM (inactive).
Still for that read-out and setting: under `CCOc1ccc(NC(=S)N/C=C(/C(C)=O)C(=O)Nc2ccccc2C)cc1` stands > 100 µM (inactive).
`COc1cc(/C=N/N=C(\N)NO)cc(Cl)c1O`: the GI50 in test [2] was 19.2 µM (inactive); in test [3], 71.1 µM (inactive); in test [5], 44 µM (inactive); in test [7], 47.4 µM (inactive).
`C=C1CC(CC)(CCN2C(=O)c3ccccc3C2=O)OC1=O` (centres undefined): the GI50 in test [3] was 17.9 µM (inactive); in test [4], 15.8 µM (inactive); in test [5], 13.6 µM (inactive); in test [6], 11.4 µM (inactive); in test [8], 13.4 µM (inactive).
Regarding `O=c1oc2ccc([N+](=O)[O-])cc2c(Nc2ccc3c(c2)Oc2ccccc2O3)c1[N+](=O)[O-]`, the GI50 in test [1] was 30.4 µM (inactive).
Still for that read-out and setting: under `COc1ccc(/C=N/NS(=O)(=O)c2ccc(/C=C3\NC(=O)N(C)C3=O)cc2)cc1` stands > 100 µM (inactive); under `O=C(NC(=S)Nc1ccc(Br)cc1)c1ccc2c(c1)Sc1ccccc1O2`, > 100 µM (inactive).
Same read-out and setting: in the case of `CCCCNC(=O)c1cc(S(=O)(=O)n2ccnc2O)c(SC)cc1Cl` it was > 100 µM (inactive).
On the same count and under the same terms, in the case of `O=P1(Cc2ccccc2)c2ccccc2-c2ccccc21` it was 2.9 µM (inactive).
For the compound `COc1ccccc1NC(=O)CC(=O)NNCC(=O)Nc1nc(-c2ccccc2)cs1`, the GI50 in test [2], in test [3], in test [4], in test [5], in test [6] and in test [7] was > 100 µM (inactive) each time.
As to `CC1(C)OC2OC(C(COS(=O)(=O)C(F)(F)F)N=[N+]=[N-])C(OC(=O)c3ccccc3)C2O1` (centres undefined), in test [1], the GI50 is > 100 µM (inactive).
Consider `Cc1cc2c(cc1-c1cc3c(cc1C)C(C(C)C)=C(O)C(=O)/C3=C\Nc1nc(-c3ccccc3)cs1)/C(=C/Nc1nc(-c3ccccc3)cs1)C(=O)C(O)=C2C(C)C`, for which the GI50 in test [1] was 23.8 µM (inactive).
On the same count and under the same terms, in the case of `c1cc2cc3c4c5c(cc6ccc7cc8cc9c%10c8c8c7c6c5c8c5c%10c(c1C9N1CCOCCOCCOCCOCCOCC1)c2c45)C3` (centres undefined) it was > 100 µM (inactive); in that of `CCCCCCCC(CC(=O)NC(CO)C(=O)NC(CO)CC(C)C)OC(=O)CC(CCCCCCC)OC(=O)CC(CCCCCCC)OC1OC(C)C(O)C(OC2OC(C)C(OC(C)=O)C(O)C2O)C1O` (centres undefined), 6.17 µM (inactive).
Regarding `Cc1cc(O)nc(NNC(C#N)c2ccc(N(C)C)cc2)n1` (centres undefined), the GI50 in test [2], in test [3], in test [4], in test [6] and in test [7] was > 100 µM (inactive) throughout.
For `Cc1nc2ccccc2c(=O)n1/N=C(\N=N\c1ccc(Cl)cc1)c1cccc(-c2ccco2)c1`, the GI50 in test [2] was 21.1 µM (inactive); in test [3] it was 27.9 µM (inactive); in test [4] it was 27.3 µM (inactive); in test [5], 25.3 µM (inactive); in test [6] it was 27.9 µM (inactive).
Regarding `COc1cccc(C2c3cc4c(cc3OC(NNS(=O)(=O)c3ccc(C)cc3)C2C)OCO4)c1O` (centres undefined), the GI50 in test [1] is 19.7 µM (inactive).
In the case of `Cc1n[nH]c(=O)n1/N=C/c1cccnc1`, the GI50 in test [1] was > 100 µM (inactive).
On the same count and under the same terms, under `C=CCOC1OC(CS(=O)(=O)O)C(O)C(O)C1O` (centres undefined) stands > 100 µM (inactive).
As to `NC1C[C@H](n2cc(/C=C/Br)c(=O)[nH]c2=O)C[C@@H]1CO` (some centres undefined), the GI50 in test [2] is > 100 µM (inactive); in test [3] it was > 100 µM (inactive); in test [4], > 100 µM (inactive); in test [5] it was 50.4 µM (inactive); in test [6], > 100 µM (inactive).
Regarding `Cc1cc(-c2nc3c(F)cccc3s2)ccc1N`, in test [1], the GI50 was 66.1 µM (inactive).
On to `O=C(O)c1cc2c(s1)C(=O)c1sccc1C2=O`, for which the GI50 was 5.52 µM (inactive) in test [2]; 14.4 µM (inactive) in test [3]; 19.2 µM (inactive) in test [4]; 10.9 µM (inactive) in test [6]; 0.264 µM (active) in test [7]; 1.91 µM (inactive) in test [1]. In addition, the GI50 in test [8] was 20.9 µM (inactive).
In the case of `O=C1c2ccc(O)c(O)c2C(=O)c2c(O)ccc(O)c21` [QUINALIZARIN], the GI50 in test [3] was 32.5 µM (inactive); in test [4], 25.4 µM (inactive); in test [5], 27.5 µM (inactive); in test [6], 25.2 µM (inactive); in test [7] it was 41.3 µM (inactive).
